Data published in patent US10709705B2, “Aminopyrimidines as ALK inhibitors” (THE REGENTS OF THE UNIVERSITY OF MICHIGAN, priority 2016, dated 2020).
Read-outs that look alike come from different tables or passages of the source.

How the values were obtained:
[1] = target: T1, ALK G1269A (Homo sapiens, UniProt Q9UM73, G1269A); test: Mutant ALK kinase inhibition, Lance TR-FRET, G1269A; type: biochemical; details: Table 5; ATP 100 μM
T1 construct: made in house; host or cells: SF9 insect cells
Procedure: The cytoplasmic domain (amino acid 1058-1620) of wild-type human ALK protein expressed as N-terminal GST-fusion protein was purchased from Carna Biosciences, Inc (Japan). Mutated ALK proteins were expressed in SF9 insect cells with N-terminal tags cleaved after purification. Kinase activities of all enzymes were assessed using a Lance® TR-FRET assay kit from Perkin Elmer Life Sciences (Waltham, Mass.). 2.5 μL of compound solution and 5 μL of protein solution were added into a black low volume 384 well microtiter plate which was incubated for 30 minutes with gentle shaking at room temperature, followed by adding 2.5 μL of fluorescently labeled peptide substrate (ULight™-IRS-1 (Tyr983) Peptide) and ATP mixture solution. The kinase reaction was performed in 50 mM HEPES (pH 7.5) with 1 mM EGTA, 1 mM MgCl2, and 2 mM DTT, 0.01% Tween-20 added right before the assay. Final concentrations of ATP, substrates, and DMSO were 100 μM, 20 nM, and 0.5%, respectively. […] The final mixture was incubated in the dark for 1 hour before the plate was read on a Tecan Infinite M-1000 multi-mode plate reader (Tecan, Durham N.C.) with an excitation wavelength of 320 nm. Emission intensities were measured at both 620 and 665 nm with the intensity ratio between 665 and 620 nm corresponding to the peptide substrate phosphorylation. […]

[2] = target: ALK G1202R (Homo sapiens, UniProt Q9UM73, G1202R); test: Mutant ALK kinase inhibition, Lance TR-FRET, G1202R; type: biochemical
Procedure: Mutated ALK proteins were expressed in SF9 insect cells with N-terminal tags cleaved after purification. […] The kinase reaction was performed in 50 mM HEPES (pH 7.5) with 1 mM EGTA, 1 mM MgCl2, and 2 mM DTT, 0.01% Tween-20 added right before the assay. […] The final mixture was incubated in the dark for 1 hour before the plate was read on a Tecan Infinite M-1000 multi-mode plate reader (Tecan, Durham N.C.) with an excitation wavelength of 320 nm.

ALK G1202R, sequence (Q9UM73 19-1620 G1202R): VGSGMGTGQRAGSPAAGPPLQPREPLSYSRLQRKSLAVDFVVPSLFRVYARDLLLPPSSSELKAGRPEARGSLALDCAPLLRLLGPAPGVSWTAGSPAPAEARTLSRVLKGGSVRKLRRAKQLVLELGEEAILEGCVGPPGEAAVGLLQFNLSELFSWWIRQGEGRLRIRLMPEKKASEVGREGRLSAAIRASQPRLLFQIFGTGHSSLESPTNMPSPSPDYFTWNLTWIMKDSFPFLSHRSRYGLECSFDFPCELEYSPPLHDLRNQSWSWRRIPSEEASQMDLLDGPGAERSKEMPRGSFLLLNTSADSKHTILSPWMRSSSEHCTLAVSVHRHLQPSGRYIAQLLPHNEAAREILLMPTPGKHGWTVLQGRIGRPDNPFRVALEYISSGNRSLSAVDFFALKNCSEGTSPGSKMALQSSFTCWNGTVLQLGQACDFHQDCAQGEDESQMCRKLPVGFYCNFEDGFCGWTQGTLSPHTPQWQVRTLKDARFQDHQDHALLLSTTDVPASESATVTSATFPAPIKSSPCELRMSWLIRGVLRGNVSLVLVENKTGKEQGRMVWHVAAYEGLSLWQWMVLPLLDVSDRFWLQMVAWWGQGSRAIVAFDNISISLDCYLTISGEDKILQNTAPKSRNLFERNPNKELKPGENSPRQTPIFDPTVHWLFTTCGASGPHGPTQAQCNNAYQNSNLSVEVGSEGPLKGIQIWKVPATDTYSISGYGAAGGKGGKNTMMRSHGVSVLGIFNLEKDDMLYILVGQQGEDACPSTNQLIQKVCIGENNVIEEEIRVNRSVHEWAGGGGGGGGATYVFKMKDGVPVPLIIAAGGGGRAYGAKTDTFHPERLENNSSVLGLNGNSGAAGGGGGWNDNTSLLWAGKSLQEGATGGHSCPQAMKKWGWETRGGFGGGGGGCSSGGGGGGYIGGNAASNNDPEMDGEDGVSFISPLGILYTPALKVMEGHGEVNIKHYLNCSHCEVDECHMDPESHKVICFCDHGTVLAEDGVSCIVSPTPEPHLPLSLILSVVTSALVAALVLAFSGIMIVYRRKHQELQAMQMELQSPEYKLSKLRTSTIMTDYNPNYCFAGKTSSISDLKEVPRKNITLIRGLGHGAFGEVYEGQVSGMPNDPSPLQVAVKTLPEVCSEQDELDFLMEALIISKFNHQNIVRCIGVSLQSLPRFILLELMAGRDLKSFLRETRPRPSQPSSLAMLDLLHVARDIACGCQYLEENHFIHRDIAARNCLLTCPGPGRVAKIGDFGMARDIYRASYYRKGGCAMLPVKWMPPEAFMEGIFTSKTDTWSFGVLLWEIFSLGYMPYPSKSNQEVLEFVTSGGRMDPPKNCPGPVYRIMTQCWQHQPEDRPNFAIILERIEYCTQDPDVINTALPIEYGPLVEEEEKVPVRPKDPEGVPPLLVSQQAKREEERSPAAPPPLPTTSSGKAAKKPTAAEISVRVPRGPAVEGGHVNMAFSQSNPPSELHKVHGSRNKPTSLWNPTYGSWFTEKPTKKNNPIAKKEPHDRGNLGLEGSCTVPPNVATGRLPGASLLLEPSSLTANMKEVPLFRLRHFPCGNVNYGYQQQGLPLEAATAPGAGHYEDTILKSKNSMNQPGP
T1 sequence (Q9UM73 19-1620 G1269A): as the sequence (Q9UM73 19-1620 G1202R) above, with R1184G, G1251A counted along it

Cc1cc(Nc2ncc(Cl)c(Nc3ccccc3S(=O)(=O)C(C)C)n2)c(OC(C)C)cc1C1=CCN(C2CCOCC2)CC1 [Cpd. No. 5, 5-chloro-N2-(2-isopropoxy-5-methyl-4-(1-(tetrahydro-2H-pyran-4-yl)-1,2,3,6-tetrahydropyridin-4-yl)phenyl)-N4-(2-(isopropylsulfonyl)phenyl)pyrimidine-2,4-diamine]
IC50 [1]: 4.3 nM | IC50 ([2]; Table 5, ATP 100 μM, read-out: IC50 (nM), G1202R): 9.2 nM | IC50 ([2]; Table 6, comparison with known ALK inhibitors, read-out: G1202R IC50): 9.2 nM
